Test results reported in US9580398B2, “Compounds, compositions, and methods for modulating ferroptosis and treating excitotoxic disorders” (The Trustees of Columbia University in the City of New York, priority 2012, dated 2017).

system: erastin (10 μM)-treated HT-1080 cells; assay: Inhibition of death in erastin (10 μM)-treated HT-1080 cells, viability by Alamar Blue; assay type: cell-based, human; conditions: Homo sapiens, HT-1080
Procedure: (§1) Cell viability was typically assessed in 384-well format by Alamar Blue (Invitrogen) fluorescence (ex/em 530/590) measured on a Victor3 platereader (Perkin Elmer, Waltham, Mass.). In some experiments, Trypan Blue dye exclusion counting was performed using an automated cell counter (ViCell, Beckman-Coulter Inc., Brea, Calif.). Cell viability in test conditions is reported as a percentage relative to the negative control treatment.
Flow cytometry data was analyzed using FloJo (9.3.2, Tree Star, Inc., Ashland, Oreg.). Chemical structures were drawn using ChemDraw Ultra (Cambridgesoft, Cambridge, Mass.). Computational determination of log P (Slog P function) was performed using MOE 2010.10 (Chemical Computing Group, Montreal, […].). Viability data was analyzed using Excel (Microsoft Corp., […].). Summary data and heatmaps were generated using R. Dose-response curves were computed by 4-parameter logistic regression in Prism 5.0c (GraphPad Software). Images were manipulated using Photoshop CS4 and Illustrator CS4 (Adobe, San Jose, Calif.).
The ability of various compounds disclosed herein to inhibit death in erastin (10 μM)-treated HT-1080 cells were tested. Cell viability was assessed by Alamar Blue. EC50 values (nM) were computed from dose response curves.

Structure (SMILES) | EC50 [nM]
NCCOCCOC(=O)c1ccc(NC2CCCCC2)c(N)c1 [SRS8-43, 2-(2-aminoethoxy)ethyl 3-amino-4-(cyclohexylamino)benzoate] | 420
Nc1ccccc1NC1CCCCC1 [SRS8-75, N1-cyclohexylbenzene-1,2-diamine] | 330

same assay, conditions: Homo sapiens, HT-1080, inhibition of death in erastin (10 μM)-treated HT-1080 cells; Alamar Blue; from dose response curves

Structure (SMILES) | EC50 [nM]
CCOC(=O)c1ccc(NC2CCC2)c(N)c1 [SRS8-71, ethyl 3-amino-4-(cyclobutylamino)benzoate] | 265
CCOC(=O)c1cnc(NC2CCCCC2)c(NCc2ccncc2)c1 [SRS14-92, ethyl 6-(cyclohexylamino)-5-(pyridin-4-ylmethylamino)pyridine-3-carboxylate] | 194
CCOC(=O)c1ccc(NC2CCCCC2)c(NCc2cncnc2)c1 [SRS13-35, ethyl 4-(cyclohexylamino)-3-(pyrimidin-5-ylmethylamino)-benzoate] | 27
CCOC(=O)c1ccc(NC2CCCCCCC2)c(N(C)C)c1 [SRS9-01, ethyl 4-(cyclooctylamino)-3-(dimethylamino)benzoate] | 3460
CCOC(=O)c1ccc(NC2CCCCC2)c(NCc2ccc(C(=O)OC)cc2)c1 [SRS12-69, ethyl 4-(cyclohexylamino)-3-(4-(methoxycarbonyl)-benzylamino)benzoate] | 58
CCOC(=O)c1cnc(NC2CCCCC2)c(NCc2ccncn2)c1 [SRS14-93, ethyl 6-(cyclohexylamino)-5-(pyrimidin-4 ylmethylamino)-pyridine-3-carboxylate] | 1550
CCOC(=O)c1ccc(NC2CCCCC2)c(NCc2ccc([N+](=O)[O-])cc2)c1 [SRS12-36, ethyl 4-(cyclohexylamino)-3-((4-nitrobenzyl)amino)benzoate] | 35
CCOC(=O)c1ccc(NC2CCCCCC2)c(N)c1 [SRS8-90, ethyl 3-amino-4-(cycloheptylamino)benzoate] | 130
CCOC(=O)c1ccc(NC2CCCCC2)c(NCc2ccccn2)c1 [SRS12-46, ethyl 4-(cyclohexylamino)-3-(pyridin-2-ylmethylamino)-benzoate] | 32
CCOC(=O)c1ccc(NC2CCC(C(C)(C)C)CC2)c(NCc2cncnc2)c1 (stereo not drawn) [SRS13-37, ethyl 4-(4-tert-butylcyclohexylamino)-3-(pyrimidin-5-ylmethylamino)benzoate] | 15
CCOC(=O)c1ccc(NC2CCCCC2)c(NCc2cc(F)cc(F)c2)c1 [SRS12-59, ethyl 4-(cyclohexylamino)-3-(3,5-difluorobenzylamino)-benzoate] | 95
CCOC(=O)c1ccc(NC2CCC(C(C)(C)C)CC2)c(N)c1 (stereo not drawn) [SRS8-92, ethyl 3-amino-4-(4-tert-butylcyclohexylamino)benzoate] | 42
CCOC(=O)c1ccc(NC2CCCCC2)c(NCc2ccc3ccccc3c2)c1 [SRS12-51, ethyl 4-(cyclohexylamino)-3-(naphthalen-2-ylmethylamino)-benzoate] | 56
CCOC(=O)c1ccc(NN2CCN(C)CC2)c(N)c1 [SRS8-53, ethyl 3-amino-4-(4-methylpiperazin-1-ylamino)benzoate] | 3600
CCOC(=O)c1ccc(Cl)c(N)c1 [SRS8-62, ethyl 3-amino-4-chlorobenzoate] | > 10000
CCOC(=O)c1cnc(NC2CCCCC2)c(N)c1 [SRS14-86, ethyl 5-amino-6-(cyclohexylamino)pyridine-3-carboxylate] | 544
CCOC(=O)c1ccc(NC2C3CC4CC(C3)CC2C4)c(N)c1 (stereo not drawn) [SRS15-17, ethyl 3-amino-4-(2-adamantylamino)benzoate] | 171
CCOC(=O)c1cc(N)c(NC2CCCCC2)cc1Cl [SRS14-57, ethyl 5-amino-2-chloro-4-(cyclohexylamino)benzoate] | 54

Structure (SMILES) | EC50 [nM]
CCOC(=O)c1cnc(NC2CCCCC2)c(NCc2ccccc2)c1 [SRS14-91, ethyl 5-(benzylamino)-6-(cyclohexylamino)pyridine-3-carboxylate] | 48
CCOC(=O)c1ccc(NC2CCCCC2)c(NCc2ccc(F)c(C#N)c2)c1 [SRS12-54, ethyl 3-(3-cyano-4-fluorobenzylamino)-4-(cyclohexylamino)-benzoate] | 158
CCOC(=O)c1ccc(NC2CCCC2)c(N)c1 [SRS8-73, ethyl 3-amino-4-(cyclopentylamino)benzoate] | 120
CCOC(=O)c1ccc(NC2C3CC4CC(C3)CC2C4)c(NCc2ccccc2)c1 (stereo not drawn) [SRS15-20-mono, ethyl 3-(benzylamino)-4-(2-adamantylamino)benzoate] | 22
CCCCCCCCN(CCCCCCCC)c1ccc(C(=O)OCC)cc1N [SRS12-12, ethyl 3-amino-4-(dioctylamino)benzoate] | > 10000
CCOC(=O)c1ccc(CNc2cc(C(=O)OCC)ccc2NC2CCCCC2)cc1 [SRS12-84, ethyl 4-(cyclohexylamino)-3-(4-(ethoxycarbonyl)benzylamino)-benzoate] | 52
CCOC(=O)c1ccc(NC2CCNCC2)c(N)c1 [SRS8-81, ethyl 3-amino-4-(piperidin-4-ylamino)benzoate] | 350
CCOC(=O)c1ccc(NC2CCCCCCC2)c(C(=O)OC(C)(C)C)c1 [SRS8-91, ethyl 3-(tert-butoxycarbonyl)-4-(cyclooctylamino)benzoate] | > 10000
CCOC(=O)c1ccc(NC23CC4CC(CC(C4)C2)C3)c(NCc2ccncc2)c1 [SRS15-24, ethyl 4-(1-adamantylamino)-3-((pyridin-4-ylmethyl)amino)-benzoate] | 9
CCOC(=O)c1ccc(NC23CC4CC(CC(C4)C2)C3)c(NCc2cncnc2)c1 [SRS15-25, ethyl 4-(1-adamantylamino)-3-(pyrimidin-5-ylmethylamino)-benzoate] | 54
CC(C)(C)OC(=O)CCOCCOC(=O)c1ccc(NC2CCCCC2)c(N)c1 [SRS8-37, 2-(2-(tert-butoxycarbonyl)ethoxy)ethyl 3-amino-4-(cyclohexylamino)benzoate] | 160
CCOC(=O)c1ccc(NC2C3CC4CC(C3)CC2C4)c(NCc2cncnc2)c1 (stereo not drawn) [SRS15-22, ethyl 4-(2-adamantylamino)-3-(pyrimidin-5-ylmethylamino)-benzoate] | 21
CCOC(=O)c1ccc(NC23CC4CC(CC(C4)C2)C3)c(N)c1 [SRS15-18, ethyl 3-amino-4-(1-adamantylamino)benzoate] | 88
CCOC(=O)c1ccc(NC2CCOCC2)c(N)c1 [SRS8-41, ethyl 3-amino-4-(tetrahydro-2H-pyran-4-ylamino)benzoate] | 1450
CCOC(=O)c1cc(N)c(NC2CCCCC2)cc1C [SRS14-58, ethyl 5-amino-4-(cyclohexylamino)-2-methylbenzoate] | 28
CCOC(=O)c1cc(N)c(NC2CCCCC2)cc1F [SRS14-55, ethyl 5-amino-4-(cyclohexylamino)-2-fluorobenzoate] | 104
CCOC(=O)c1ccc(NC2C3CC4CC(C3)CC2C4)c(NCc2ccncc2)c1 (stereo not drawn) [SRS15-21, ethyl 4-(2-adamantylamino)-3-((pyridin-4-ylmethyl)amino)-benzoate] | < 5

same assay, conditions: inhibition of death in erastin (10 μM)-treated HT-1080 cells; Alamar Blue; from dose response curves

Structure (SMILES) | EC50 [nM]
CCOC(=O)c1ccc(NC2CCC(C(=O)OC(C)(C)C)CC2)c(N)c1 (stereo not drawn) [SRS8-46, ethyl 3-amino-4-(4-(tert-butoxycarbonyl)cyclohexylamino) benzoate] | 515

system: HT-1080 cells; assay: Erastin-induced death in HT-1080 cells with co-treated inhibitors (viability, microscopy); assay type: cell-based, human; conditions: HT-1080 and BJeLR cells; media with glucose and Gln; AOA 2 mM
Procedure: as §1
Phase contrast images were acquired using an AMG EVOS FL (Advanced Microscopy Group) microscope equipped with a 10× phase-contrast objective. Three independent fields were acquired for each experimental condition. Representative samples from one field of view are shown.

Structure (SMILES) | effect on erastin-induced ferroptosis (glutamine metabolism modulators)
COC(=O)CCC(=O)C(=O)OC [DMK, dimethyl alphaketoglutarate] | lethality of erastin was restored
O=C(O)C(Cl)Cl [DCA, dichloroacetic acid] | had no effect
NOCC(=O)O [AOA, aminooxyacetic acid] | rescued

same assay, conditions: HT-1080 cells

Structure (SMILES) | effect of co-treatment on erastin-induced death
O=C(O)CN(CCOCCOCCN(CC(=O)O)CC(=O)O)CC(=O)O [EGTA] | had no effect on erastin-induced death
Cc1ccc(N(CC(=O)O)CC(=O)O)c(OCCOc2cc3cc(-c4ncc(C(=O)O)o4)oc3cc2N(CC(=O)O)CC(=O)O)c1 [Fura-2] | had no effect on erastin-induced death
CC(=O)OCOC(=O)CN(CC(=O)OCOC(C)=O)c1ccccc1OCCOc1ccccc1N(CC(=O)OCOC(C)=O)CC(=O)OCOC(C)=O [BAPTA-AM] | had no effect on erastin-induced death

same assay, conditions: HT-1080 cells; added up to 6 hours after erastin

Structure (SMILES) | protection from death on late addition
c1ccc(-c2ccccn2)nc1 [2,2-bipyridyl] | substantial protection from death
